Assay results reported in ChEMBL document CHEMBL4145686, “Discovery of a Potent and Selective Steroidal Glucocorticoid Receptor Antagonist (ORIC-101)” (J Med Chem, 2018).

Assays:
[1] = Clearance in rat at 0.5 mg/kg, iv; format: ADME, organism-based; conditions: in vivo
[2] = biological target: T1, Glucocorticoid receptor (Sus scrofa) (UniProt Q9N1U3); assay: (§1) Antagonist activity at GR in mini pig PBMC assessed as reduction in dexamethasone-induced GILZ gene expression incubated for 24 hrs by RT-qPCR method; format: cell-based
T1 sequence (whole entry): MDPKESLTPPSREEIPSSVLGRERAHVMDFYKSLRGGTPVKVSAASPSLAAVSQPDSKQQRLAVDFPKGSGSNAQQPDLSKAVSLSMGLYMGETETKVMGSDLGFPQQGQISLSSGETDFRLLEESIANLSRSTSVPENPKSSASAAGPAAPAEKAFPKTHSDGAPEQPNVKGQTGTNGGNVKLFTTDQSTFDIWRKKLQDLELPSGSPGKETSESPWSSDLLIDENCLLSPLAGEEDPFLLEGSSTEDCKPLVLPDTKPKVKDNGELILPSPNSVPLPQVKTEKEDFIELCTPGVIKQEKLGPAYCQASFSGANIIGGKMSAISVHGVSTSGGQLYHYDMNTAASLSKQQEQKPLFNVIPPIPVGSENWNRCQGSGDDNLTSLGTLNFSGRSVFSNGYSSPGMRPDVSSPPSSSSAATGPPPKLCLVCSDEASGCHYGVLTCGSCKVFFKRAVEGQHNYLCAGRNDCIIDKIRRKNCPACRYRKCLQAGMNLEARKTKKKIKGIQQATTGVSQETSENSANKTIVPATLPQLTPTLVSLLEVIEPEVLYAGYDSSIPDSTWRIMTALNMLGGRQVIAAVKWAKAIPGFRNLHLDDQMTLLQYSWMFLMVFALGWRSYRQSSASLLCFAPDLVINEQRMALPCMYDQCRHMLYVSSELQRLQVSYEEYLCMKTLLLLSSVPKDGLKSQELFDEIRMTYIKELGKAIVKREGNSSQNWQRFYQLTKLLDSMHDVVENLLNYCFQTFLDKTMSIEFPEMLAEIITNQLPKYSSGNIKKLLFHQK

[3] = biological target: T2, Glucocorticoid receptor (Sus scrofa, UniProt Q9N1U3); assay: as §1; format: cell-based
T2 sequence (Q9N1U3 whole entry): T1 sequence (whole entry)

[4] = Oral bioavailability in mouse at 5 mg/kg; format: ADME, organism-based; conditions: in vivo
[5] = biological target: T3, Glucocorticoid receptor (Homo sapiens, UniProt P04150); assay: Antagonist activity at GR in human PBMC assessed as reduction in dexamethasone-induced FKBP5 gene expression incubated for 6 hrs by RT-qPCR method; format: cell-based
T3 sequence (P04150 whole entry): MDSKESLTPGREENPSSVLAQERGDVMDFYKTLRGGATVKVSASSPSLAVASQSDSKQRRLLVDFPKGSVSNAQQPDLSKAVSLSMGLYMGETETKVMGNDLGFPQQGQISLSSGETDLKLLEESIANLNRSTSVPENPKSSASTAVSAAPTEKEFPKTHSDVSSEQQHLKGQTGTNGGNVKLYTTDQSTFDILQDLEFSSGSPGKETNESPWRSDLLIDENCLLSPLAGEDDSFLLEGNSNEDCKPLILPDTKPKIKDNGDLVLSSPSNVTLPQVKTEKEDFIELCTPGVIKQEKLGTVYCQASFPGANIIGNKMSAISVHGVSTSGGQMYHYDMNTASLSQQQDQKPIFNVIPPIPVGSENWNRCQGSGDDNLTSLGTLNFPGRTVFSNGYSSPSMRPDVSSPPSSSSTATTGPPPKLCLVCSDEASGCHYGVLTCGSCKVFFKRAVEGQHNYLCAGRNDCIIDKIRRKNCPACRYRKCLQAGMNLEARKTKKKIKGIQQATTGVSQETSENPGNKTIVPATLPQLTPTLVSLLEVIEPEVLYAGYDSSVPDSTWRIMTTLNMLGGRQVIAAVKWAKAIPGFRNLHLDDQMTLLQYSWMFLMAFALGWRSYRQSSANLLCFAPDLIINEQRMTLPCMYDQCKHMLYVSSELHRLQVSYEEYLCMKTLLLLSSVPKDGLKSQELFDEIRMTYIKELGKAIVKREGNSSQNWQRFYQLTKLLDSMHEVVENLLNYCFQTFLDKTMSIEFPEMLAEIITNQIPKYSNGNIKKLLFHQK

[6] = biological target: T4, Mineralocorticoid receptor (Homo sapiens, UniProt P08235); assay: Agonist activity at human MR expressed in CHO-K1 cells assessed as increase in protein interaction between MR and its coactivator SRC at 5 uM incubated for 24 hrs by beta-galactosidase based chemiluminescence assay; format: cell-based; conditions: cho-k1, 24 h
T4 sequence (P08235 whole entry): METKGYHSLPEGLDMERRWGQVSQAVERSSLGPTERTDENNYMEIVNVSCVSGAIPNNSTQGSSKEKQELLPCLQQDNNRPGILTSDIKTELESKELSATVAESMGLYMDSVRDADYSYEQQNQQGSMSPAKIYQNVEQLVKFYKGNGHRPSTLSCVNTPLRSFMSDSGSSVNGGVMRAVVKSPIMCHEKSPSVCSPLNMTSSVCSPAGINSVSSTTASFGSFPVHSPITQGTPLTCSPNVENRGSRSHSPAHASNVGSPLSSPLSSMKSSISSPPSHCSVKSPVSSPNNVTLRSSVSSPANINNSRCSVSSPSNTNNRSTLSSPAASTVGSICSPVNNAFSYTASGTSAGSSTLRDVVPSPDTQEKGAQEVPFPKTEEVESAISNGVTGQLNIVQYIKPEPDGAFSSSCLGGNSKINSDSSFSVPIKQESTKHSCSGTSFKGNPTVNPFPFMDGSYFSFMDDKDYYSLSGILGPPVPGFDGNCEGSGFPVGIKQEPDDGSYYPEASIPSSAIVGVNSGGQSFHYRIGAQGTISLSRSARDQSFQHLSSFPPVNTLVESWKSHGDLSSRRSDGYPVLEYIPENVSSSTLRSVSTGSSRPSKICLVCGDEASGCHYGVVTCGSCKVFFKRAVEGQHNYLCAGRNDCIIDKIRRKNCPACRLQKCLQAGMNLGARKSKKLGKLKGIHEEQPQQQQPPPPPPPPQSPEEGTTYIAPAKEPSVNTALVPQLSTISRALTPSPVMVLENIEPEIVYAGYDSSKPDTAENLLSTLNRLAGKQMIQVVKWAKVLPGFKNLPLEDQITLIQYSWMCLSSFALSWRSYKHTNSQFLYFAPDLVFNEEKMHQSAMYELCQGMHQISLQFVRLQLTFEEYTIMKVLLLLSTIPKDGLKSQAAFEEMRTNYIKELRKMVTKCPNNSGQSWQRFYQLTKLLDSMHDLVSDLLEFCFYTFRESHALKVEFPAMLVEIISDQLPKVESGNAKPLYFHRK

With `CC(C)N(C)c1ccc([C@H]2C[C@@]3(C)[C@@H](CC[C@@]3(O)C#CC(C)(C)C)[C@@H]3CCC4=CC(=O)CC[C@@H]4[C@H]32)cc1` the clearance [1] was 31.7 mL/min/kg, the inhibition [2] was “Dose-dependent effect” and the IC50 [3] was 181 nM. For the same compound, the bioavailability [4] was 21%, the IC50 [5] was 19.5 nM and the Activity [6] was “Not Active”.
